Each structure is given as a SMILES string.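 Cultured in 96-well plates, cells were exposed to test compound for 48 hours across five concentrations. At the GI50, growth is halved.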 Active and inactive are the calls of the source. Cut-off read from the data, not from the text of the source: active = GI50 up to about 1.1 µM and inactive = higher. A value given as a limit tells only on which side of the number the result lay.

Assay in all cases: inhibition of tumour cell growth, NCI panel, 48 h
For assay [1], the system named is A498.
The subject of assay [2] is ACHN.
For assay [3], the system named is BT-549.
For assay [4], the system named is DU-145.
Assay [5] has as its system EKVX.
Assay [6] deals with HCT-15.
The test system of assay [7] is HOP-92.
Assay [8] has as its system Hs-578T.
In assay [9] the test system is KM12.
Assay [10] has as its system LOX IMVI.
In assay [11] the test system is NCI-H226.
Assay [12] relates to NCI-H23.
For assay [13], the system named is NCI-H522.
In assay [14] the test system is OVCAR-8.
Assay [15] concerns SK-OV-3.
Assay [16] concerns SN12C.
Assay [17] deals with SNB-75.
The test system of assay [18] is SW-620.
Assay [19] concerns TK-10.
The subject of assay [20] is UACC-62.

Take `CCN(CCO)CCNc1ccc(C)c2sc3ccccc3c(=O)c12`: the GI50 in assay [1] is 15 µM (inactive); in [2], 4.26 µM (inactive); in assay [3] it was 13.4 µM (inactive); in [4], 10.2 µM (inactive); in [5] it was 12.5 µM (inactive); in assay [6], 4.15 µM. In addition, the GI50 is 4.37 µM (inactive) in [7]; 2.25 µM (inactive) in assay [8]; 3.68 µM (inactive) in [9]; 2.24 µM (inactive) in assay [10]; 4 µM (inactive) in [11]; 8.05 µM (inactive) in assay [12]. For the same compound, the GI50 in assay [13] is 4.89 µM (inactive); in [14], 4.06 µM (inactive); in assay [15] it was 5.66 µM (inactive); in assay [16], 5.24 µM (inactive); in [17], 3.01 µM (inactive); in assay [18], 2.28 µM (inactive). Moreover, the values for the GI50 in assay [19] and in [20] were 8.81 µM (inactive) and 1.76 µM (inactive), respectively.
Regarding `O=C1Cc2cc3ccccc3nc2-c2ccccc2N1`, the GI50 in [1] was 61.5 µM (inactive); in assay [2], 54.7 µM (inactive); in [3] it was 92.9 µM (inactive); in assay [4], 79.6 µM (inactive); in assay [5] it was 67 µM (inactive); in [6] it was 96.6 µM. The GI50 in assay [7] is 41.7 µM (inactive); in assay [8], 28.8 µM (inactive); in assay [9], > 100 µM (inactive); in assay [10], 38.6 µM (inactive); in [11] it was > 100 µM (inactive); in [12] it was > 100 µM (inactive). In addition, the GI50 in [13] was 26.7 µM (inactive); in assay [14], 35.3 µM (inactive); in assay [15] it was 38 µM (inactive); in assay [16], > 100 µM (inactive); in assay [17], 24.7 µM (inactive); in assay [18] it was > 100 µM (inactive). Further, the GI50 in assay [19] was 27.7 µM (inactive); in [20], > 100 µM (inactive).
On to `O=C1c2ccccc2-c2c1c1ccccc1c(=O)n2CCO`, for which the GI50 in assay [1] was 35 µM (inactive); in [2], 2.17 µM (inactive); in assay [3] it was 18.5 µM (inactive); in [4], 13.5 µM (inactive); in [5], 10 µM (inactive); in assay [6] it was 5.83 µM. Further, the GI50 in [7] is 29.5 µM (inactive); in assay [8], 29.8 µM (inactive); in assay [9], 6.38 µM (inactive); in assay [10], 5.28 µM (inactive); in assay [11], 6.84 µM (inactive); in assay [12], 14.1 µM (inactive). In addition, the GI50 in assay [13] was 24 µM (inactive); in assay [14] it was 9.38 µM (inactive); in assay [15], 30.8 µM (inactive); in [16], 10.8 µM (inactive); in assay [17], 25.4 µM (inactive); in assay [18] it was 7.29 µM (inactive). The GI50 in assay [19] is > 50.5 µM (inactive); in assay [20] it was 11.5 µM (inactive).
`O=C1/C(=N/CCc2cc(Br)c(O)c(Br)c2)C=C(O)c2cccnc21`: the GI50 was 3.08 µM (inactive) in assay [1]; 2.68 µM (inactive) in assay [2]; 1.37 µM (inactive) in assay [3]; 1.45 µM (inactive) in assay [4]; 8.47 µM (inactive) in assay [5]; 2.36 µM in assay [6]. For the same compound, the GI50 was 7.94 µM (inactive) in [7]; 1.49 µM (inactive) in assay [8]; 2.94 µM (inactive) in assay [9]; 0.634 µM (active) in [10]; 1.87 µM (inactive) in [11]; 0.502 µM (active) in [12]. The GI50 in assay [13] is 1.74 µM (inactive); in assay [14] it was 4.38 µM (inactive); in assay [15], 7.26 µM (inactive); in assay [16], 1.35 µM (inactive); in assay [17], 1.13 µM (inactive); in assay [18], 2.17 µM (inactive). The values for the GI50 in [19] and in assay [20] were 3.33 µM (inactive) and 1.51 µM (inactive), respectively.

These data come from ChEMBL document CHEMBL1201862, “PubChem BioAssay data set” (2004).
